The results in this text go back to ChEMBL document CHEMBL5584341, “Discovery of Potent, Specific, and Orally Available NLRP3 Inflammasome Inhibitors Based on Pyridazine Scaffolds for the Treatment of Septic Shock and Peritonitis” (J Med Chem, 2024).

The source made the active and inactive calls. No cut-off for these calls is given here.

The target in one data set is Cytochrome P450 2D6 (Homo sapiens, UniProt P10635). The data set can be described thus: Inhibition of human CYP2D6 at 10 uM relative to control. The data set is classed as ADME.
Sequence of Cytochrome P450 2D6 (P10635 whole entry): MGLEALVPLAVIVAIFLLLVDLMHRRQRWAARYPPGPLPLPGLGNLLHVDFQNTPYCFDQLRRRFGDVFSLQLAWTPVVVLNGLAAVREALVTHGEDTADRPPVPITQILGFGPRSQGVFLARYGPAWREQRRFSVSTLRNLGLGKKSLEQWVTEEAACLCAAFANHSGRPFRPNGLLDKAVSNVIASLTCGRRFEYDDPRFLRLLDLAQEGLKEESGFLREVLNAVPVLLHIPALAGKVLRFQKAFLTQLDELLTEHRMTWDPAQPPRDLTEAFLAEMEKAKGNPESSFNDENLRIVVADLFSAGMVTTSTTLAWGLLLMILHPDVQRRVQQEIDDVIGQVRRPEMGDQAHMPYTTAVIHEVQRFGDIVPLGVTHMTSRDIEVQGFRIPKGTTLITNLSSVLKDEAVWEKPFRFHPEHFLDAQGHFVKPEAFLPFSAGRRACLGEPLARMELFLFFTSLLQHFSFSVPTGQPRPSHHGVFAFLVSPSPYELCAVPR
For data set [1], the system named is Mus musculus. As to the kind of experiment: Antiinflammatory activity against LPS induced septic shock in BALB/c mouse assessed as reduction in TNFalpha level at 25 mg/kg, ip pretreated for 1 hr followed by LPS stimulation and measured after 3 hrs by ELISA. The data set is classed as functional, organism-based. The conditions noted are these: time 4.0 hrs. For orientation: An ELISA detects its analyte on a solid surface through an enzyme-linked reagent.

In data set [2] the test system is Mus musculus. The data set can be described thus: Antiinflammatory activity against LPS induced septic shock in BALB/c mouse assessed as increase in survival rate at 25 mg/kg, ip pretreated for 1 hr followed by LPS stimulation and measured after 72 hrs. The data set is classed as functional. Particulars: time 73 hrs.
The next data set concerns the target Cytochrome P450 3A4 (Homo sapiens, UniProt P08684). As to the kind of experiment: Inhibition of human CYP3A4 upto 10 uM relative to control. The data set is classed as ADME.
In data set [3] the target is NACHT, LRR and PYD domains-containing protein 3 (Mus musculus, UniProt Q8R4B8). As to the kind of experiment: Inhibition of NLRP3 inflammasome activation in LPS/nigericin stimulated mouse BMDMs assessed as reduction in IL-1beta release pretreated with LPS for 3 hrs followed by compound addition for 40 mins prior to nigericin stimulation for 40 mins by ELISA. The data set is classed as cell-based, BMDM.
Sequence of NACHT, LRR and PYD domains-containing protein 3 (Q8R4B8 whole entry, the tested form may be a part): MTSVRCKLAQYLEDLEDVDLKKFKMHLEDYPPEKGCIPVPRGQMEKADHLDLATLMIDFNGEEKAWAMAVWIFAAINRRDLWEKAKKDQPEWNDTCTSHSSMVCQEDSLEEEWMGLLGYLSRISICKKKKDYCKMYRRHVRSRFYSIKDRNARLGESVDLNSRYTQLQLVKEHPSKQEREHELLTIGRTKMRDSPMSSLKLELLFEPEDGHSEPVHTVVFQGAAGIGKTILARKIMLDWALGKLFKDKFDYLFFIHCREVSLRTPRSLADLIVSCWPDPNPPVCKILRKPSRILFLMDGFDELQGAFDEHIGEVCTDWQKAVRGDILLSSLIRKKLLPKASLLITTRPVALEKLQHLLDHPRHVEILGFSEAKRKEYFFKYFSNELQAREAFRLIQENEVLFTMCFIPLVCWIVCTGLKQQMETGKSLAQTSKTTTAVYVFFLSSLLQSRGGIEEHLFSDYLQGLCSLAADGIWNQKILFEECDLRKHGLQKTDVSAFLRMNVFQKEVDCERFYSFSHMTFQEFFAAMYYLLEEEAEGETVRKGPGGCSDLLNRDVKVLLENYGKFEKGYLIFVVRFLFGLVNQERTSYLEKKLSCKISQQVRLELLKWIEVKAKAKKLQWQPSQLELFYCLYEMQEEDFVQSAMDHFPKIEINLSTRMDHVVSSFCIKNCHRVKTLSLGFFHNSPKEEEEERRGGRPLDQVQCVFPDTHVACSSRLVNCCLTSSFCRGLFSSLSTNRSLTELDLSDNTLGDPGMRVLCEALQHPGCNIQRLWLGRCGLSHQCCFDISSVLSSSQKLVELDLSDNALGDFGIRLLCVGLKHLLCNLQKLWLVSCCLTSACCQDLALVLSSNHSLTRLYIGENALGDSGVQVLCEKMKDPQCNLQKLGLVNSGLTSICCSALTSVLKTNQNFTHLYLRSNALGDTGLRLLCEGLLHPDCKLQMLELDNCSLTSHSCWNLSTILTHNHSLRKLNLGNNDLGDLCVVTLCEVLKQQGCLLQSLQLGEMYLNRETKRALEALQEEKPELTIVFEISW

Data set [4] relates to Mus musculus. The data set can be described thus: Inhibition of MSU crystal induced peritonitis in BALB/c mouse assessed as reduction in IL-1beta level in peritoneal lavage fluids at 50 to 100 mg/kg, ip pretreated with LPS for 3 hrs followed by compound addition prior to MSU stimulation for 6 hrs by ELISA. It counts as functional, organism-based. Particulars: dose 50-100 mg/kg.

The subject of a further data set is LX-2. The data set can be described thus: Cytotoxicity against human LX-2 cells at 5 uM incubated for 72 hrs by MTT assay. Particulars: lx-2, 72 h. It counts as toxicity, cell-based. A general note: Formazan colour is commonly taken as a measure of viable cells.
In a further data set the test system is NRK-49F. The data set can be described thus: Cytotoxicity against rat NRK-49F cells at 5 to 20 uM incubated for 72 hrs by MTT assay. It counts as toxicity, cell-based. The conditions noted are these: dose 5-20 µM.
The nature of data set [5]: Cmax in BALB/c mouse at 5 mg/kg, iv measured upto 24 hrs by LC-MS/MS analysis. The conditions noted are these: in vivo. The data set is classed as ADME, organism-based.
Data set [6] concerns the target NACHT, LRR and PYD domains-containing protein 3 (Mus musculus) (UniProt Q8R4B8). As to the kind of experiment: Inhibition of NLRP3 inflammasome activation in LPS/nigericin stimulated mouse BMDMs assessed as effect on pro-IL-1beta expression pretreated with LPS for 3 hrs followed by compound addition for 40 mins prior to nigericin stimulation for 40 mins by Western blotting analysis. It counts as cell-based. Particulars: BMDM, time 80.0 min. On the technique in general: In western blotting, separated proteins are transferred to a membrane and probed.

The subject of another data set is BMDM. As to the kind of experiment: Reduction in LDH release in LPS/nigericin stimulated mouse BMDMs at 5 to 80 nM. The conditions noted are these: dose 5-80 nM. It counts as functional, cell-based.

The IC50 is the concentration that gives 50% inhibition. By Cmax is commonly meant the highest concentration seen after dosing.

Sequence of NACHT, LRR and PYD domains-containing protein 3 (Mus musculus) (Q8R4B8 whole entry, the tested form may be a part): as above
Sequence of Cytochrome P450 3A4 (P08684 whole entry, the tested form may be a part): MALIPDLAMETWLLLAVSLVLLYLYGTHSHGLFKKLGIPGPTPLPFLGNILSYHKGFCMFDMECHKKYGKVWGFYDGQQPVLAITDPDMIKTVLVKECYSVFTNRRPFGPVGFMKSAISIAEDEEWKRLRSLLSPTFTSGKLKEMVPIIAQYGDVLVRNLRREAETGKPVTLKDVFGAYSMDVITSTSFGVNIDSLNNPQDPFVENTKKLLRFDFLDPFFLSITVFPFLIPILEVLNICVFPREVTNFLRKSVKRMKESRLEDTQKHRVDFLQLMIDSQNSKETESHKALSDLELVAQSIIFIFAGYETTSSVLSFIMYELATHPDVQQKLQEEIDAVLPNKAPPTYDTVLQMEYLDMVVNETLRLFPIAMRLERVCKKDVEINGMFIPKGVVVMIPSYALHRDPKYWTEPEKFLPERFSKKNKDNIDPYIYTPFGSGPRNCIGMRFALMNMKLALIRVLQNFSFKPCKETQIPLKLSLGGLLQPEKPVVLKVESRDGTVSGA

Regarding `OCCN1CCC[C@@H](Nc2nnc(-c3ccc4occc4c3O)c3c2C2CCC3CC2)C1`, the “inhibition (INH)” value is “Active” against Cytochrome P450 2D6 and “Not Active” against Cytochrome P450 3A4. The result with Mus musculus [1] was Active. The Activity is 82% in the data set on Mus musculus [2], “Non-Toxic” with LX-2, “Non-Toxic” in the data set with NRK-49F and “Dose-Dependent Effect” with BMDM. Further, the IC50 in data set [3] worked out at 15.3 nM. Further, the inhibition entry in the data set on Mus musculus [4] was “Active”. This compound gave a Cmax in data set [5] of 3770 ng/mL. In data set [6], the inhibition result was “inactive”.
